Data: patent US8785452B2, “Anti-infective compounds” (priority 2008, dated 2014)
Like-named read-outs stand apart in the source and are kept apart here.

Experiments:
[1] = tested on: M. tuberculosis H37Rv-GFP; assay: microbe, parasite or virus in culture; type: cell-based, Mycobacterium tuberculosis; details: Mycobacterium tuberculosis, H37RV, Macrophage; for inhibition at 0.2 µM: read-out: QIM Confirm % Inhibition 0.2 uM; for inhibition at 2 µM: read-out: QIM Confirm % Inhibition 2 uM
[2] = tested on: M. tuberculosis H37Rv-GFP; assay: microbe, parasite or virus in culture; type: cell-based; details: Mycobacterium tuberculosis; for inhibition at 0.2 µM: read-out: QUM Confirm % Inhibition 0.2 uM; for inhibition at 2 µM: read-out: QUM Confirm % Inhibition 2 uM; for inhibition at 20 µM: read-out: QUM Confirm % Inhibition 20 uM
Raw264.7 cells = assay: Cell number (CellNb) from image analysis of the phenotypic cell-based assay
[3] = confirmation, 0.2 uM, intracellular
[4] = confirmation, 2 uM, intracellular
[5] = confirmation, 20 uM, read-out: QIM Confirm % Inhibition 20 uM
[6] = primary screen, 20 μM, read-out: Primary QIM % Inhibition
[7] = read-out: Primary QIM % Inhibition
[8] = read-out: QIM Confirm % Inhibition 20 uM

Compound | inhibition at 0.2 µM [1, 3] | inhibition at 2 µM [1, 4] | inhibition at 20 µM [1, 5] | inhibition at 20 µM [1, 6] | inhibition at 0.2 µM [2] | inhibition at 2 µM [2] | inhibition at 20 µM [2] | QIM Confirm CellNb 0.2 uM (Raw264.7 cells; confirmation, 0.2 uM) | QIM Confirm CellNb 2 uM (Raw264.7 cells; confirmation, 2 uM) | QIM Confirm CellNb 20 uM (Raw264.7 cells; confirmation, 20 uM) | Primary QIM CellNb (Raw264.7 cells; primary screen, 20 μM) | inhibition at 20 µM [1, 7] | inhibition at 0.2 µM [1] | inhibition at 2 µM [1] | inhibition at 20 µM [1, 8] | Primary QIM CellNb (Raw264.7 cells) | QIM Confirm CellNb 0.2 uM (Raw264.7 cells) | QIM Confirm CellNb 2 uM (Raw264.7 cells) | QIM Confirm CellNb 20 uM (Raw264.7 cells)
O=C(N/N=C/C=C/c1ccccc1)c1ccncc1 [IPK 000 013 68] | 50.9% | 102% | 67.2% | 65% | 50.4% | 77.1% | 77.6% | 400.1 | 528.8 | 438.8 | 276.3 | – | – | – | – | – | – | – | –
O=C(Oc1cccc2ncccc12)c1ccccc1F [IPK 000 018 65] | 28% | 14% | 39.2% | 23.1% | 36.4% | 54% | 99% | 256.6 | 218.3 | 256.4 | 218.0 | – | – | – | – | – | – | – | –
COc1ccc(OCCNC(=O)c2cc([N+](=O)[O-])cc([N+](=O)[O-])c2)cc1 [IPK 000 028 35] | – | – | – | – | 94% | 98.1% | 48.3% | – | – | – | – | 94.5% | 64.5% | 102% | 17.8% | 315.3 | 489.8 | 478.6 | 308.9
O=C(Oc1cccc2cccnc12)c1cccc([N+](=O)[O-])c1 [IPK 000 018 66] | 8.6% | 0.4% | 16.7% | -26.8% | 39.3% | 72% | 99.6% | 258.1 | 296.6 | 130.4 | 63.3 | – | – | – | – | – | – | – | –
O=C(Nc1ccc(Oc2ccccc2)cc1)C1CCCO1 (centres unmarked) [IPK 000 033 16] | 5% | 69.6% | 92.3% | 81.9% | 34.1% | 42% | 61.3% | 296.1 | 573.9 | 303.9 | 283.0 | – | – | – | – | – | – | – | –
N#CC(C#N)=NNc1ccc(I)cc1 [IPK 000 007 31] | – | – | – | – | 41% | 33% | 80.8% | – | – | – | – | -28.2% | 45.7% | 14.7% | 25.8% | 61.3 | 393.1 | 308.8 | 166.5
O=C(NCCOc1ccccc1Cl)c1cc([N+](=O)[O-])cc([N+](=O)[O-])c1 [IPK 000 027 72] | 29.3% | 77.7% | 100% | 82.6% | 35.1% | 97.6% | 101% | 267.0 | 440.4 | 238.1 | 333.3 | – | – | – | – | – | – | – | –
O=C(N/N=C\c1ccc(Cl)s1)c1ccncc1 [IPK 000 009 42] | 21.3% | 92.3% | 97.9% | 93.1% | 28.8% | 50.3% | 100% | 326.3 | 473.5 | 255.0 | 376.5 | – | – | – | – | – | – | – | –
Cc1ccc2ccc3ccc(C)nc3c2n1 [IPK 000 002 03] | -2% | 7.7% | -12.3% | -28.5% | 32.5% | 52.4% | 69.7% | 241.4 | 92.0 | 148.0 | 77.0 | – | – | – | – | – | – | – | –
CC(C)(C)C(=O)Nc1ccccc1C(=O)N1CCOCC1 [IPK 000 021 87] | 15.4% | 29.8% | 96.5% | 90.2% | 49.1% | 42.9% | 41.9% | 305.3 | 403.4 | 609.0 | 405.0 | – | – | – | – | – | – | – | –
O=C(NN=C1CCCCC1)c1ccncc1 [IPK 000 013 72] | 63.2% | 104% | 101% | 82.2% | 57.7% | 73.9% | 98% | 448.5 | 541.6 | 457.3 | 355.5 | – | – | – | – | – | – | – | –
O=C(N/N=C/c1ccccc1F)c1ccncc1 [IPK 000 013 71] | 86.3% | 105% | 97.5% | 103% | 51.6% | 92.2% | 68.4% | 476.5 | 544.3 | 377.4 | 358.8 | – | – | – | – | – | – | – | –
N#Cc1ccccc1NC(=O)CSc1nc2ccccc2s1 [IPK 000 018 97] | 7.3% | 20% | 83.8% | 76.7% | 40.5% | 33.9% | 36.1% | 288.5 | 299.8 | 553.9 | 314.0 | – | – | – | – | – | – | – | –
C/C(=N\NOCc1cc([N+](=O)[O-])cc([N+](=O)[O-])c1)c1ccccc1 [IPK 000 035 56] | 9.1% | 18.8% | 89% | 83.3% | 41.5% | 39.6% | 65.6% | 247.1 | 313.1 | 524.3 | 266.0 | – | – | – | – | – | – | – | –
CC(C)c1ccc(CNC(=O)c2cc([N+](=O)[O-])cc([N+](=O)[O-])c2)cc1 [IPK 000 027 78] | 33% | 99.3% | 96.3% | 79.6% | 71.7% | 97.5% | 78.2% | 366.0 | 543.5 | 499.4 | 332.0 | – | – | – | – | – | – | – | –
O=C(/C=C/c1ccc(Cl)cc1Cl)c1ccc(Cl)cc1 [IPK 000 015 36] | 15.8% | -4.8% | 36.1% | 38.1% | 41.9% | 59.4% | 79.5% | 331.0 | 286.0 | 168.0 | 146.5 | – | – | – | – | – | – | – | –
